Measurements: US4563467A, “Derivatives of N-iminopyridinium betaines having anti-hypertensive and salidiuretic activity and their preparation” (Provesan S.A., priority 1983, dated 1986)
Where a name gives a salt, the structure may show the parent alone. Read-outs that look alike come from different tables or passages of the source.

Legend:
[1] = Diuretic activity (method of Taylor and Topliss): elimination of urine and urine parameters over 8 hours; assay type: in vivo, Male Sprague-Dawley (HC/CFY) rats; details: rat; for ED50: po, from regression of log dose against percentage effect; for ED50 / Elimination of urine, 8 h: 8 h; for Elimination in the urine: Cl / Elimination in the urine: K / Elimination in the urine: Na / Osmotic pressure of urine / Urine pH / Elimination of urine, 1 h / Elimination of urine, 2 h / Elimination of urine, 3 h / Elimination of urine, 4 h / Elimination of urine, 6 h / Elimination of urine, 8 h: 40 mg/kg; for Elimination in the urine: Cl / Elimination in the urine: K / Elimination in the urine: Na / Osmotic pressure of urine / Urine pH: over 8 hours; for Elimination of urine, 1 h / Elimination of urine, 2 h / Elimination of urine, 3 h / Elimination of urine, 4 h / Elimination of urine, 6 h / Elimination of urine, 8 h: probang
Description: ACTIVITY Method of R. M. Taylor and […]. Med. Pharm. Chem. 1962, 4, 312 Male Sprague-Dawley (HC/CFY) rats weighting between 150 and 200 grams are used. The animals are kept without food and water for 16 hours before the start of the test. The products are administered as a suspension in a 0.5% strength carboxymethylcellulose suspension in a 0.9% strength sodium chloride solution, using a probang, the amount administered being 50 ml/kg of body weight. […] The following parameters are determined in the urine: volume (ml/kg); sodium and potassium (milliequivalents/kg/8 h) (flame photometer); chloride (milliequivalents/kg/8 h) (chloride-meter); pH/8 h (pH-meter) and osmotic pressure (osmotic millimols/kg/8 h) (osmometer). The comparsion animals are given the 0.5% strength carboxymethylcellulose suspension in a 0.9% strength sodium chloride solution in an amount of […] of body weight.

[2] = Acute toxicity, oral, mouse; assay type: in vivo, CFLP-RE albino mice
Description: The product is administered orally in suspension in 5% strength gum arabic to CFLP-RE albino mice weighing 20-25 g and to CFY-RE Sprague-Dawley rats weighing 125-175 g. The volume administered is 25 ml/kg in the mouse except for the maximum dose of 12,800 mg/kg where a volume of 50 ml/kg is administered, and 10 ml/kg in the rat except for the maximum dose of 12,800 mg/kg where a volume of 30 ml/kg is administered.
It was impossible to determine the 50 percent lethal dose since no deaths occurred.

[3] = read-out: ED50, osmotic pressure (m osmol/kg/8 h)
[4] = read-out: ED50, volume of urine (ml/kg/8 h)

| SMILES | ED50 [1, 3] [mg/kg] | ED50 [1, 4] [mg/kg] | Elimination in the urine: Cl [1] [milliequivalents/kg/8 h] | Elimination in the urine: K [1] [milliequivalents/kg/8 h] | Elimination in the urine: Na [1] [milliequivalents/kg/8 h] | Osmotic pressure of urine [1] [osmotic millimols/kg/8 h] | Urine pH [1] | Elimination of urine, 1 h [1] [mL/kg] | Elimination of urine, 2 h [1] [mL/kg] | Elimination of urine, 3 h [1] [mL/kg] | Elimination of urine, 4 h [1] [mL/kg] | Elimination of urine, 6 h [1] [mL/kg] | Elimination of urine, 8 h [1] [mL/kg] | Mortality ([2]; female, 400 mg/kg) | Mortality ([2]; female, 800 mg/kg) | Mortality ([2]; male, 400 mg/kg) | Mortality ([2]; male, 800 mg/kg) |
| --- | --- | --- | --- | --- | --- | --- | --- | --- | --- | --- | --- | --- | --- | --- | --- | --- | --- |
| NS(=O)(=O)c1cc(C2(O)NC(=O)c3ccccc32)ccc1Cl (stereo not shown) [Chlortalidone, reference compound] | 7.7 | 6.9 | 10.8 | 1.9 | 9.3 | 29.9 | 6.6 | 8.7 | 21.0 | 30.9 | 37.6 | 45.6 | 49.8 | – | – | – | – |
| NS(=O)(=O)c1cc(C(=O)[N-][n+]2ccccc2)ccc1Cl [Example 1, 1-[(4-chloro-3-sulfamylbenzoyl)-amino]pyridinium hydroxide inner salt] | 1.9 | 4.1 | 9.2 | 1.5 | 8.3 | 25.5 | 6.6 | 7.3 | 15.2 | 27.6 | 35.4 | 40.5 | 44.5 | – | – | – | – |
| Cc1cc(C)[n+]([N-]C(=O)c2ccc(Cl)c(S(N)(=O)=O)c2)c(C)c1 [Example 2, 1-[(4-chloro-3-sulfamylbenzoyl)-amino]-2,4,6-trimethylpyridinium hydroxide inner salt] | 1.2 | 4.7 | 11.8 | 1.7 | 9.1 | 29.7 | 6.0 | 10.4 | 22.3 | 30.2 | 36.0 | 41.5 | 45.6 | 0/4 | 0/4 | 0/4 | 0/4 |
| Cc1cccc(C)[n+]1[N-]C(=O)c1ccc(Cl)c(S(N)(=O)=O)c1 [Example 3, 1-[(4-chloro-3-sulfamylbenzoyl)-amino]-2,6-dimethylpyridinium hydroxide inner salt] | 2.1 | 4.6 | 11.7 | 1.8 | 9.5 | 34.2 | 6.1 | 8.4 | 22.9 | 31.9 | 36.7 | 45.2 | 50.7 | – | – | – | – |
| NC(=O)c1ccc[n+]([N-]C(=O)c2ccc(Cl)c(S(N)(=O)=O)c2)c1 [Example 4, 1-[(4-chloro-3-sulfamylbenzoyl)-amino]-3-carbamylpyridinium hydroxide inner salt] | – | – | 7.0 | 1.1 | 6.6 | 20.8 | 6.2 | 5.8 | 8.6 | 19.5 | 24.2 | 31.1 | 37.5 | – | – | – | – |
| Cc1cc(C)[n+]([N-]C(=O)c2cc(S(N)(=O)=O)c(Cl)cc2NCc2ccco2)c(C)c1 [Example 5, 1-{[4-chloro-2-(2-furylmethylamino)-5-sulfamylbenzoyl]-amino}-2,4,6-trimethylpyridinium hydroxide inner salt] | – | – | 6.2 | 1.3 | 3.0 | 16.6 | 6.1 | 1.1 | 3.4 | 8.0 | 12.5 | 18.4 | 20.7 | – | – | – | – |
| NS(=O)(=O)c1cc(C(=O)[N-][n+]2c(-c3ccccc3)cc(-c3ccccc3)cc2-c2ccccc2)ccc1Cl [Example 6, 1-[(4-chloro-3-sulfamylbenzoyl)-amino]2,4,6-triphenylpyridinium hydroxide inner salt] | – | – | 8.1 | 1.1 | 6.6 | 25.3 | 6.0 | 6.9 | 14.2 | 19.4 | 22.2 | 26.0 | 27.4 | – | – | – | – |
| Cc1cc(C)[n+](NC(=O)c2ccc(Cl)c(S(N)(=O)=O)c2)c(C)c1.[Cl-] [Example 7, 1-[(4-chloro-3-sulfamylbenzoyl)-amino]-2,4,6-trimethylpyridinium chloride] | – | – | 9.3 | 1.6 | – | 31.0 | 6.3 | 6.2 | 18.6 | 28.4 | 36.1 | 47.3 | 52.4 | – | – | – | – |
| Cc1cc(C)[n+](NC(=O)c2cc(S(N)(=O)=O)c(Cl)cc2NCc2ccco2)c(C)c1.Cl.[Cl-] [Example 8, 1-{[4-chloro-2-(2-furylmethylamino)-5-sulfamylbenzoyl]-amino}-2,4,6-trimethylpyridinium chloride hydrochloride] | – | – | 7.2 | 1.2 | 5.9 | 23.4 | 6.7 | 0.0 | 11.9 | 19.6 | 28.5 | 34.4 | 39.2 | – | – | – | – |
| NS(=O)(=O)c1cc(C(=O)N[n+]2c(-c3ccccc3)cc(-c3ccccc3)cc2-c2ccccc2)ccc1Cl.[Cl-] [Example 9, 1-[(4-chloro-3-sulfamylbenzoyl)-amino]-2,4,6-triphenylpyridinium chloride] | – | – | 7.5 | 1.2 | 6.0 | 25.1 | 6.2 | 5.2 | 12.6 | 16.8 | 19.0 | 21.5 | 25.3 | – | – | – | – |
